# Experimental data: PubChem BioAssay AID2060607 (Molecular Pharmacology Branch, DTP, NCI, 2025)
# Test system: 876862-298-R-J1-PDC complex spheroids, viability % test/control
# Experiment: Anticancer human tumor 876862-298-R-J1-PDC patient-derived endometrial carcinoma cell line growth inhibition [CLK]
# Settings: for IC50: curve of first compound; for viability, T/C: stronger effect = lower value
# Excerpt: A high-throughput screen of multi-cell type tumor spheroids was designed to identify active combinations of […] and targeted small molecules. Complex spheroids include a stromal component modeled by human endothelial cells (HUVEC) and fibroblasts modeled by human mesenchymal stem cells (MSCs). The concentration ranges selected for each drug and investigational agent were based upon clinically achievable concentrations if the clinical Cmax of the agent was known.
# Compounds. The drugs and investigational agents: cirtuvivint (SM08502; NSC835563), CC-671 (NSC850746), vemurafenib (NSC761431), tapotoclax (NSC804041), sotorasib (NSC818433), adagrasib (NSC831453), MRTX-1133 (NSC836407), BAY2416964 (NSC825713), copanlisib (NSC816437), inavolisib (NSC800729), abemaciclib (NSC768073), osimertinib (NSC779217), entinostat (NSC756642), eltanexor (KPT-8602, NSC794443), venetoclax (NSC766270), ceralasertib (NSC777638), bortezomib (NSC756655), olaparib (NSC753686), talazoparib (NSC767125), alisertib (NSC759677), peposertib (NSC802822), gemcitabine (NSC613327), 5-fluorouracil (NSC19893), SN-38 (NSC673596), oxaliplatin (NSC266046), paclitaxel (NSC125973), and doxorubicin (NSC123127), were obtained from the National Cancer Institute (NCI) Developmental Therapeutics Program Chemical Repository. The FDA-approved anticancer drug set is available from the Developmental Therapeutics Program at https://dtp.cancer.gov/organization/dscb/obtaining/available plates.htm. […] The stock solutions were prepared in dimethyl sulfoxide (DMSO, Sigma-Aldrich, St. Louis, MO, cat. D2650), except for the platinum complexes which were prepared in saline (Quality Biological, Gaithersburg, MD, cat. 114-055-101), at 800-fold the tested concentration and stored at -70 degrees C prior to their use. All drugs and investigational agents were tested over a range starting from a high concentration at or near the clinical Cmax and decreasing in half-log increments. If the clinical Cmax for an agent had not been determined, the highest concentration tested was 10 microM.
# Cell Culture. All cells were maintained in an incubator at 37 degrees C and 5% CO2 with 95% humidity. The PDC lines were cultured according to standard operating procedures established by the NCI PDMR. Briefly, all PDCs were thawed and cultured in Matrigel-coated flasks prepared with a working solution of 1X Ham's F-12 nutrient mix, without supplementation (Invitrogen, Waltham, MA, cat. 11765054), 100 U/mL penicillin-streptomycin (Invitrogen, cat. 15140122), and 2.5% Matrigel (Corning Inc., Corning, NY, cat. 354248) for the first three passages. The 947758-054-R-J2-PDC line was cultured in 6B/Colon 1A media, which includes advanced DMEM/F-12 (Thermo Fisher Scientific, cat. 12634028), 10 mM HEPES (Thermo Fisher Scientific, cat. 15630080), 1X GlutaMAX supplement (Thermo Fisher Scientific, cat. 35050061), 0.1 mg/mL primocin (InvivoGen, cat. ant-pm-2), 10% defined fetal bovine serum, heat inactivated (HyClone Laboratories Inc., cat. SH30070.03HI), 1.25 mM N-Acetyl-L-cysteine (Sigma-Aldrich, cat. A9165), 10 mM nicotinamide (Sigma-Aldrich, cat. N0636), 1X B-27 supplement (Thermo Fisher Scientific, cat. 17504044), 1X N-2 supplement (Thermo Fisher Scientific, cat. 17502048), and 10 microM Y-27632 dihydrochloride (Tocris Bioscience, cat. 1254). The 876862-298-R-J1-PDC was cultured in 6E media, which includes all 6B/Colon 1A media components plus 50% L-WRN conditioned media (ATCC, cat. CRL-3276), 50 ng/mL recombinant human EGF recombinant protein (hEGF; Thermo Fisher Scientific, cat. PHG0311), 10 ng/mL recombinant human fibroblast growth factor 10 (hGFG-10; PeproTech, cat. 100-26), 1 ng/mL recombinant human fibroblast growth factor 2 (hFGF-2; PeproTech, cat. 100-18B), and 1 µM prostaglandin E2 (PGE2; Tocris, cat. 2296). The 227483-062-R1-J1-PDC line was cultured in Panc media, containing all 6E components except hFGF-2, with the addition of 500 nM SB-431542 (Selleckchem, cat. S1067) and 10 nM gastrin (Tocris, cat. 3006). […]
# [1] = second compound 0.0316 µM, first compound 0.0316 µM
# [2] = second compound 0.0316 µM, first compound 0.1 µM
# [3] = second compound 0.0316 µM, first compound 0.316 µM
# [4] = second compound 0.0316 µM, first compound 1 µM
# [5] = second compound 0.0316 µM, first compound 3.16 µM
# [6] = second compound 0.0316 µM, first compound 10 µM
# [7] = second compound 0.1 µM, first compound 0.0316 µM
# [8] = second compound 0.1 µM, first compound 0.1 µM
# [9] = second compound 0.1 µM, first compound 0.316 µM
# [10] = second compound 0.1 µM, first compound 1 µM
# [11] = second compound 0.1 µM, first compound 3.16 µM
# [12] = second compound 0.1 µM, first compound 10 µM
# [13] = second compound 0.316 µM, first compound 0.0316 µM
# [14] = second compound 0.316 µM, first compound 0.1 µM
# [15] = second compound 0.316 µM, first compound 0.316 µM
# [16] = second compound 0.316 µM, first compound 1 µM
# [17] = second compound 0.316 µM, first compound 3.16 µM
# [18] = second compound 0.316 µM, first compound 10 µM
# [19] = second compound 1 µM, first compound 0.0316 µM
# [20] = second compound 1 µM, first compound 0.1 µM
# [21] = second compound 1 µM, first compound 0.316 µM
# [22] = second compound 1 µM, first compound 1 µM
# [23] = second compound 1 µM, first compound 3.16 µM
# [24] = second compound 1 µM, first compound 10 µM
# [25] = second compound 3.16 µM, first compound 0.0316 µM
# [26] = second compound 3.16 µM, first compound 0.1 µM
# [27] = second compound 3.16 µM, first compound 0.316 µM
# [28] = second compound 3.16 µM, first compound 1 µM
# [29] = second compound 3.16 µM, first compound 3.16 µM
# [30] = second compound 3.16 µM, first compound 10 µM
# [31] = second compound 10 µM, first compound 0.0316 µM
# [32] = second compound 10 µM, first compound 0.1 µM
# [33] = second compound 10 µM, first compound 0.316 µM
# [34] = second compound 10 µM, first compound 1 µM
# [35] = second compound 10 µM, first compound 3.16 µM
# [36] = second compound 10 µM, first compound 10 µM
# 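Also: spheroids exposed to drugs for 7 days before readout.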
# 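For viability, T/C in this document: 100% = DMSO vehicle control wells.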
compound,measurement,setting,value
C#Cc1c(F)ccc2cc(O)cc(-c3ncc4c(N5CC6CCC(C5)N6)nc(OCC56CCCN5CC(F)C6)nc4c3F)c12 (stereo unspecified) + CN1CCN(c2cc(C(=O)Nc3cc4cc(-c5cnn(C)c5)ccc4cn3)ccn2)CC1,IC50,second compound 0.0316 µM,> 10000 nM
same,IC50,second compound 0.1 µM,501 nM
same,IC50,second compound 0.316 µM,< 31.6 nM
same,IC50,second compound 1 µM,< 31.6 nM
same,IC50,second compound 3.16 µM,< 31.6 nM
same,IC50,second compound 10 µM,< 31.6 nM
same,"viability, T/C",[1],98.9%
same,"viability, T/C",[2],92.6%
same,"viability, T/C",[3],87.8%
same,"viability, T/C",[4],93.7%
same,"viability, T/C",[5],91.6%
same,"viability, T/C",[6],74.1%
same,"viability, T/C",[7],51.6%
same,"viability, T/C",[8],52.2%
same,"viability, T/C",[9],50.8%
same,"viability, T/C",[10],48.6%
same,"viability, T/C",[11],47.7%
same,"viability, T/C",[12],45.4%
same,"viability, T/C",[13],5.98%
same,"viability, T/C",[14],5.2%
same,"viability, T/C",[15],5.69%
same,"viability, T/C",[16],4.19%
same,"viability, T/C",[17],5.76%
same,"viability, T/C",[18],4.81%
same,"viability, T/C",[19],0.92%
same,"viability, T/C",[20],0.91%
same,"viability, T/C",[21],0.75%
same,"viability, T/C",[22],1.82%
same,"viability, T/C",[23],1.86%
same,"viability, T/C",[24],1.68%
same,"viability, T/C",[25],1.56%
same,"viability, T/C",[26],2.17%
same,"viability, T/C",[27],1.31%
same,"viability, T/C",[28],2.48%
same,"viability, T/C",[29],2.22%
same,"viability, T/C",[30],3.07%
same,"viability, T/C",[31],0.96%
same,"viability, T/C",[32],0.95%
same,"viability, T/C",[33],1.74%
same,"viability, T/C",[34],1.58%
same,"viability, T/C",[35],2.68%
same,"viability, T/C",[36],1.54%
C=C(F)C(=O)N1CCN(c2nc(OCC3CCCN3C)nc3c2CCN(c2cccc4cccc(Cl)c24)C3)CC1CC#N (stereo unspecified) + CN1CCN(c2cc(C(=O)Nc3cc4cc(-c5cnn(C)c5)ccc4cn3)ccn2)CC1,IC50,second compound 0.0316 µM,4840 nM
same,IC50,second compound 0.1 µM,3190 nM
same,IC50,second compound 0.316 µM,< 31.6 nM
same,IC50,second compound 1 µM,< 31.6 nM
same,IC50,second compound 3.16 µM,< 31.6 nM
same,IC50,second compound 10 µM,< 31.6 nM
same,"viability, T/C",[1],82.8%
same,"viability, T/C",[2],93.9%
same,"viability, T/C",[3],82.3%
same,"viability, T/C",[4],95.2%
same,"viability, T/C",[5],73.6%
same,"viability, T/C",[6],9.9%
same,"viability, T/C",[7],47.9%
same,"viability, T/C",[8],51.7%
same,"viability, T/C",[9],50.4%
same,"viability, T/C",[10],51.6%
same,"viability, T/C",[11],50.4%
same,"viability, T/C",[12],4.78%
same,"viability, T/C",[13],4.71%
same,"viability, T/C",[14],4.05%
same,"viability, T/C",[15],6.86%
same,"viability, T/C",[16],5.08%
same,"viability, T/C",[17],3.01%
same,"viability, T/C",[18],0.46%
same,"viability, T/C",[19],1.31%
same,"viability, T/C",[20],1.26%
same,"viability, T/C",[21],0.91%
same,"viability, T/C",[22],1.47%
same,"viability, T/C",[23],1.43%
same,"viability, T/C",[24],0.85%
same,"viability, T/C",[25],1.01%
same,"viability, T/C",[26],1.11%
same,"viability, T/C",[27],2.16%
same,"viability, T/C",[28],1.83%
same,"viability, T/C",[29],1.72%
same,"viability, T/C",[30],0.4%
same,"viability, T/C",[31],0.93%
same,"viability, T/C",[32],1.28%
same,"viability, T/C",[33],2.22%
same,"viability, T/C",[34],1.62%
same,"viability, T/C",[35],1.63%
same,"viability, T/C",[36],1.23%
CC(CO)NC(=O)c1cc(-c2ccc(Cl)cc2)nn(-c2cnn(C)c2)c1=O (stereo unspecified) + CN1CCN(c2cc(C(=O)Nc3cc4cc(-c5cnn(C)c5)ccc4cn3)ccn2)CC1,IC50,second compound 0.0316 µM,> 10000 nM
same,IC50,second compound 0.1 µM,319 nM
same,IC50,second compound 0.316 µM,< 31.6 nM
same,IC50,second compound 1 µM,< 31.6 nM
same,IC50,second compound 3.16 µM,< 31.6 nM
same,IC50,second compound 10 µM,< 31.6 nM
same,"viability, T/C",[1],94.8%
same,"viability, T/C",[2],81.7%
same,"viability, T/C",[3],69.5%
same,"viability, T/C",[4],68.8%
same,"viability, T/C",[5],67.5%
same,"viability, T/C",[6],57.3%
same,"viability, T/C",[7],53.9%
same,"viability, T/C",[8],52.5%
same,"viability, T/C",[9],49%
same,"viability, T/C",[10],46.2%
same,"viability, T/C",[11],49.5%
same,"viability, T/C",[12],43.7%
same,"viability, T/C",[13],5.52%
same,"viability, T/C",[14],5.79%
same,"viability, T/C",[15],7.05%
same,"viability, T/C",[16],8.98%
same,"viability, T/C",[17],8.34%
same,"viability, T/C",[18],8.71%
same,"viability, T/C",[19],1.36%
same,"viability, T/C",[20],1.36%
same,"viability, T/C",[21],2.15%
same,"viability, T/C",[22],1.19%
same,"viability, T/C",[23],1.66%
same,"viability, T/C",[24],1.71%
same,"viability, T/C",[25],1.12%
same,"viability, T/C",[26],1.53%
same,"viability, T/C",[27],2.58%
same,"viability, T/C",[28],1.7%
same,"viability, T/C",[29],2.81%
same,"viability, T/C",[30],2.69%
same,"viability, T/C",[31],1.23%
same,"viability, T/C",[32],1.96%
same,"viability, T/C",[33],2.08%
same,"viability, T/C",[34],2.68%
same,"viability, T/C",[35],1.84%
same,"viability, T/C",[36],2.5%
